# Measurements from PubChem BioAssay AID330 (DTP/NCI, 2004).
# Toxic doses and inconclusive results are not listed.
# Tested on: P388 leukemia ip, CD2F1 mice, survival T/C
# Assay: NCI In Vivo Anticancer Drug Screen. Data for tumor model P388 Leukemia (intraperitoneal) in CD2F1 (CDF1) mice
# Conditions: endpoint: median survival time, higher = longer survival
# In short: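 Mice carrying the transplanted tumor received test compound or vehicle. Survival was recorded in each group, and the value is the treated-group measurement divided by that of the vehicle-treated control group.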
# [1] = dose: 50.0 mg/kg/injection, schedule: Q01DX009 (ip), vehicle: saline with Tween-80
# [2] = dose: 100.0 mg/kg/injection, schedule: Q01DX009 (ip), vehicle: saline with Tween-80
# [3] = dose: 50.0 mg/kg/injection, schedule: Q01DX005 (ip), vehicle: Klucel (hydroxypropylcellulose) (HPC)
# [4] = dose: 100.0 mg/kg/injection, schedule: Q01DX005 (ip), vehicle: Klucel (hydroxypropylcellulose) (HPC)
# [5] = dose: 200.0 mg/kg/injection, schedule: Q01DX005 (ip), vehicle: Klucel (hydroxypropylcellulose) (HPC)
# [6] = dose: 50.0 mg/kg/injection, schedule: Q01DX009 (ip), vehicle: Klucel (hydroxypropylcellulose) (HPC)
# [7] = dose: 50.0 mg/kg/injection, schedule: Q01DX005 (ip), vehicle: saline with Tween-80
# [8] = dose: 100.0 mg/kg/injection, schedule: Q01DX005 (ip), vehicle: saline with Tween-80
smiles,measurement,setting,value
COc1ccc2cc1-c1cc(ccc1O)CCC(O)CC1CCCC(CC(OC(C)=O)CC2)N1 (centres undefined),T/C,"dose: 15.0 mg/kg/injection, schedule: Q01DX009 (ip), vehicle: Klucel (hydroxypropylcellulose) (HPC)",107 % of control
same,T/C,"dose: 30.0 mg/kg/injection, schedule: Q01DX009 (ip), vehicle: Klucel (hydroxypropylcellulose) (HPC)",100 % of control
same,T/C,"dose: 60.0 mg/kg/injection, schedule: Q01DX009 (ip), vehicle: Klucel (hydroxypropylcellulose) (HPC)",100 % of control
CN1NC(c2ccccc2)NN(C)C1=O,T/C,"dose: 50.0 mg/kg/injection, schedule: Q01DX005 (ip), vehicle: saline",97 % of control
same,T/C,"dose: 100.0 mg/kg/injection, schedule: Q01DX005 (ip), vehicle: saline",99 % of control
same,T/C,"dose: 200.0 mg/kg/injection, schedule: Q01DX005 (ip), vehicle: saline",106 % of control
CSC(=S)n1nc(-c2ccccc2)c(N=Nc2cccc(C)c2C)c1-c1ccccc1,T/C,"dose: 100.0 mg/kg/injection, schedule: Q04DX002 (ip), vehicle: saline with Tween-80",90 % of control
same,T/C,"dose: 200.0 mg/kg/injection, schedule: Q04DX002 (ip), vehicle: saline with Tween-80",89 % of control
same,T/C,"dose: 400.0 mg/kg/injection, schedule: Q04DX002 (ip), vehicle: saline with Tween-80",102 % of control
CN1c2ccccc2SC12C(=O)N(c1ccccc1)C(=O)N2c1ccccc1 (centres undefined),T/C,[1],103 % of control
same,T/C,[2],100 % of control
same,T/C,"dose: 200.0 mg/kg/injection, schedule: Q01DX009 (ip), vehicle: saline with Tween-80",103 % of control
O=P1(N2CCOCC2)OC(c2ccccc2)=CCN1c1ccc(Cl)cc1 (centres undefined),T/C,[3],104 % of control
same,T/C,[4],100 % of control
same,T/C,[5],95 % of control
Cc1cc2c(cc1C)NC1=C(N2)OC(c2ccc(C3OC4=C(Nc5cc(C)c(C)cc5N4)C3=O)cc2)C1=O (centres undefined),T/C,"dose: 60.0 mg/kg/injection, schedule: Q01DX005 (ip), vehicle: Klucel (hydroxypropylcellulose) (HPC)",92 % of control
same,T/C,"dose: 120.0 mg/kg/injection, schedule: Q01DX005 (ip), vehicle: Klucel (hydroxypropylcellulose) (HPC)",92 % of control
same,T/C,"dose: 240.0 mg/kg/injection, schedule: Q01DX005 (ip), vehicle: Klucel (hydroxypropylcellulose) (HPC)",93 % of control
CCCc1cc(-c2cccc3ccccc23)c(CCC)c2c1-c1cccc3cccc-2c13,T/C,[1],97 % of control
same,T/C,[2],96 % of control
CCOc1nnc(-c2ccc(OC)c(OC)c2)o1,T/C,"dose: 12.5 mg/kg/injection, schedule: Q01DX009 (ip), vehicle: other",90 % of control
same,T/C,"dose: 100.0 mg/kg/injection, schedule: Q01DX009 (ip), vehicle: other",106 % of control
same,T/C,"dose: 200.0 mg/kg/injection, schedule: Q01DX009 (ip), vehicle: other",90 % of control
O=c1c(Cl)c2oc3ccc([N+](=O)[O-])cc3nc-2c(Cl)c1Cl,T/C,[1],109 % of control
same,T/C,[2],107 % of control
CS(=O)(=O)/C=C/c1cc2ccccc2[nH]1,T/C,[6],89 % of control
same,T/C,"dose: 100.0 mg/kg/injection, schedule: Q01DX009 (ip), vehicle: Klucel (hydroxypropylcellulose) (HPC)",101 % of control
same,T/C,"dose: 200.0 mg/kg/injection, schedule: Q01DX009 (ip), vehicle: Klucel (hydroxypropylcellulose) (HPC)",104 % of control
Cc1[nH]c(/N=C/c2ccc(N(C)C)cc2)c(C#N)c1C,T/C,"dose: 60.0 mg/kg/injection, schedule: Q01DX005 (ip), vehicle: saline with Tween-80",91 % of control
same,T/C,"dose: 120.0 mg/kg/injection, schedule: Q01DX005 (ip), vehicle: saline with Tween-80",90 % of control
same,T/C,"dose: 240.0 mg/kg/injection, schedule: Q01DX005 (ip), vehicle: saline with Tween-80",97 % of control
CCCCCCCCCCCC[N+](C)([O-])Cc1ccccc1 (centres undefined),T/C,[6],89 % of control
COc1cc2c(cc1OC)C1=[N+](CC2)C2=C(CC1)C(=O)CCC2,T/C,"dose: 25.0 mg/kg/injection, schedule: Q01DX005 (ip), vehicle: Klucel (hydroxypropylcellulose) (HPC)",94 % of control
same,T/C,[3],97 % of control
same,T/C,[4],99 % of control
same,T/C,[5],93 % of control
NC(=O)SCCC(=O)Nc1ccccc1,T/C,[3],105 % of control
same,T/C,[4],105 % of control
same,T/C,[5],109 % of control
CN(C)C(=S)S(=O)(=O)c1ccc(Cl)cc1,T/C,"dose: 12.5 mg/kg/injection, schedule: Q01DX009 (ip), vehicle: saline with Tween-80",105 % of control
same,T/C,"dose: 25.0 mg/kg/injection, schedule: Q01DX009 (ip), vehicle: saline with Tween-80",96 % of control
same,T/C,"dose: 25.0 mg/kg/injection, schedule: Q04DX002 (ip), vehicle: Klucel (hydroxypropylcellulose) (HPC)",119 % of control
same,T/C,[1],96 % of control
same,T/C,"dose: 50.0 mg/kg/injection, schedule: Q04DX002 (ip), vehicle: Klucel (hydroxypropylcellulose) (HPC)",112 % of control
COc1ccc(CSc2nn(CCC#N)c(=O)[nH]c2=O)cc1,T/C,[7],95 % of control
same,T/C,[8],97 % of control
same,T/C,"dose: 200.0 mg/kg/injection, schedule: Q01DX005 (ip), vehicle: saline with Tween-80",94 % of control
C(CCc1nn[nH]n1)CCC1CCCCC1,T/C,[7],96 % of control
same,T/C,[8],107 % of control
